The results in this text go back to PubChem BioAssay (NCI).

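Step 1: Grow cells in 96-well plates. Step 2: Expose to compound for 48 hours at 5 concentrations. Step 3: Interpolate endpoints linearly; if unreached, use highest concentration. TGI marks complete inhibition of growth.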 Bounds are passed on as bounds.

Test systems include A498 renal; HCT-15 colon; HOP-62 NSCLC; OVCAR-4 ovarian; SK-MEL-28 melanoma; SK-OV-3 ovarian; U251 CNS.
Experiment in all cases: DTP human tumour cell line panel, 48 h

As to `CC1=NNC(=O)C2CCC(=O)N12` (configuration not stated), the total growth inhibition concentration (TGI) with A498 renal, in the assay on HCT-15 colon, in the assay on HOP-62 NSCLC, with OVCAR-4 ovarian, with SK-MEL-28 melanoma and with SK-OV-3 ovarian was over 100 µM each time. The TGI in the assay with U251 CNS is over 100 µM.
For `Cc1ccc(Cc2c(=O)[nH]nc3ccccc23)cc1`, the total growth inhibition concentration (TGI) in the assay with A498 renal, in the assay on HCT-15 colon, in the assay with HOP-62 NSCLC, in the assay on OVCAR-4 ovarian, with SK-MEL-28 melanoma and in the assay with SK-OV-3 ovarian was over 100 µM throughout.
In the case of `CC1(C)COC(c2cccnc2/C=N/O)=N1`, the TGI in the assay with A498 renal, in the assay with HCT-15 colon, in the assay on HOP-62 NSCLC, in the assay on OVCAR-4 ovarian, in the assay on SK-MEL-28 melanoma and in the assay on SK-OV-3 ovarian was over 100 µM in each case. In the assay with U251 CNS, the concentration for total growth inhibition (TGI) was over 100 µM.
`O=[N+]([O-])c1ccc(C2=Nn3cnnc3SC2)o1`: the total growth inhibition concentration (TGI) in the assay on A498 renal came out at 32.3 µM; in the assay on HCT-15 colon, 27.2 µM; with HOP-62 NSCLC, 89.5 µM; with SK-MEL-28 melanoma it was 31.1 µM; in the assay on U251 CNS it was 30.1 µM.
As to `N#CC(N)(C(=O)CCC(=O)Nc1cccc(Cl)c1)c1ccc(Cl)cc1` (configuration not stated), the total growth inhibition concentration (TGI) in the assay with A498 renal, with HCT-15 colon, in the assay with HOP-62 NSCLC, in the assay with OVCAR-4 ovarian, in the assay with SK-MEL-28 melanoma and in the assay with SK-OV-3 ovarian was over 100 µM each time. The TGI in the assay on U251 CNS was over 100 µM.
On to `N#Cc1nc(Nc2cccc3ccccc23)sc1N`, for which the concentration for total growth inhibition (TGI) with HCT-15 colon is over 100 µM; in the assay with HOP-62 NSCLC, over 100 µM; with OVCAR-4 ovarian, over 100 µM; with SK-MEL-28 melanoma, over 100 µM; in the assay on SK-OV-3 ovarian, over 100 µM; with U251 CNS, 52.9 µM.
`COC(=O)C1=C(O)c2cc(OC)c(OC)cc2C(c2ccc(OC)c(OC)c2)C1` (configuration not stated): the TGI with A498 renal is 98.2 µM; with HCT-15 colon it was over 100 µM; in the assay on HOP-62 NSCLC it was over 100 µM; in the assay with OVCAR-4 ovarian it was over 100 µM; in the assay on SK-MEL-28 melanoma, over 100 µM; with SK-OV-3 ovarian, over 100 µM. Further, in the assay on U251 CNS, the TGI is over 100 µM.
On to `CCCCC(C(=O)C(=O)NC1C2CC3CC(C2)CC1C3)C(=O)C(C)C` (configuration not stated), for which the TGI in the assay with A498 renal, with HCT-15 colon, in the assay with HOP-62 NSCLC, in the assay with OVCAR-4 ovarian, in the assay with SK-MEL-28 melanoma and in the assay with SK-OV-3 ovarian was over 100 µM throughout. The total growth inhibition concentration (TGI) with U251 CNS was over 100 µM.
In the case of `CC(C)c1ccccc1NC(=O)CCc1n[nH]c(=S)o1`, the total growth inhibition concentration (TGI) in the assay on A498 renal was over 100 µM; in the assay on HCT-15 colon it was over 56.9 µM; in the assay with HOP-62 NSCLC, over 100 µM; in the assay on OVCAR-4 ovarian it was over 100 µM; with SK-MEL-28 melanoma, over 100 µM; with SK-OV-3 ovarian it was over 100 µM. The TGI in the assay with U251 CNS was over 100 µM.
As to `S=C(Nc1ccccc1)N(/N=C/C=C/c1ccccc1)c1nnc(-c2ccccc2)c(-c2ccccc2)n1`, the total growth inhibition concentration (TGI) with A498 renal, in the assay on HCT-15 colon, in the assay on HOP-62 NSCLC, with OVCAR-4 ovarian, with SK-MEL-28 melanoma and in the assay on SK-OV-3 ovarian was over 100 µM each time. Also, the TGI in the assay with U251 CNS is over 100 µM.
Turning to `Cn1c2c(c3ccccc31)C1CCCCCCC1C1C(=O)OC(=O)C21` (configuration not stated), the TGI in the assay with A498 renal, in the assay with HCT-15 colon, in the assay on OVCAR-4 ovarian, in the assay on SK-MEL-28 melanoma, in the assay with SK-OV-3 ovarian and in the assay on U251 CNS was over 100 µM each time.
Turning to `O=S1(=O)C[C@H](O)[C@H](O)CS1`, the total growth inhibition concentration (TGI) in the assay on A498 renal, with HOP-62 NSCLC, in the assay on OVCAR-4 ovarian, in the assay on SK-MEL-28 melanoma, in the assay with SK-OV-3 ovarian and with U251 CNS was over 100 µM throughout.
On to `COc1ccc2c3c([nH]c2c1[N+](=O)[O-])C(C)=NCC3`, for which the TGI with A498 renal, in the assay with HCT-15 colon, in the assay on HOP-62 NSCLC, in the assay on OVCAR-4 ovarian, in the assay on SK-MEL-28 melanoma and in the assay on U251 CNS was over 100 µM throughout.
With `Cc1ccc(S(=O)(=O)N(CC(=O)O)c2ccccc2)cc1`, the TGI in the assay with A498 renal, in the assay on HCT-15 colon, in the assay on OVCAR-4 ovarian, with SK-MEL-28 melanoma, in the assay with SK-OV-3 ovarian and in the assay with U251 CNS was over 100 µM in each case.
Consider `CN(C)/C=N/c1nc2c(ncn2C2OC(CO)C(O)C2O)c(=O)[nH]1` (configuration not stated), for which the total growth inhibition concentration (TGI) in the assay with A498 renal, in the assay on HCT-15 colon, in the assay with HOP-62 NSCLC, with OVCAR-4 ovarian, with SK-OV-3 ovarian and in the assay on U251 CNS was over 100 µM in each case.
Consider `COc1cccc(/C=C/c2cc(OC)c(OC)c(OC)c2)c1`, for which the concentration for total growth inhibition (TGI) with A498 renal, in the assay with HCT-15 colon, in the assay on HOP-62 NSCLC, with SK-MEL-28 melanoma, in the assay on SK-OV-3 ovarian and in the assay with U251 CNS was over 100 µM throughout.

By TGI is commonly meant the concentration at which net growth stops. A low value points to greater sensitivity of the cells.
